Data set [1] deals with HCT-116. The experiment in a line: Antiproliferative activity against human HCT116 cells after 48 hrs by SRB assay. Format: functional, cell-based. The conditions noted are these: HCT-116, 48 h.
Data set [2] concerns the target T1, Tumour suppressor p53/oncoprotein Mdm2 (Homo sapiens) (UniProt P04637+Q00987). The experiment in a line: Inhibition of human MDM2-p53 interaction in Saccharomyces cerevisiae assessed as p53 induced cell growth arrest at 1 to 50 uM after 42 hrs by Yeast-based assay. It counts as protein assay.
Data set [3] relates to Saccharomyces cerevisiae. The experiment in a line: Growth inhibition of Saccharomyces cerevisiae expressing empty vector at 1 to 50 uM after 42 hrs by Yeast-based assay. It counts as organism-based. The conditions noted are these: in vivo.
In data set [4] the test system is Saccharomyces cerevisiae. Put plainly: Growth inhibition of Saccharomyces cerevisiae expressing MDM2 at 1 to 50 uM after 42 hrs by Yeast-based assay. It counts as organism-based. The conditions noted are these: in vivo.
Data set [5] deals with Saccharomyces cerevisiae. Put plainly: Growth inhibition of Saccharomyces cerevisiae expressing p53 at 1 to 50 uM after 42 hrs by Yeast-based assay. It counts as organism-based. Particulars: in vivo.
The target of data set [6] is T1, Tumour suppressor p53/oncoprotein Mdm2 (Homo sapiens). The experiment in a line: Inhibition of MDM2-p53 interaction in human HCT116 cells assessed as p53 activation by measuring increase in MDM2 expression at 4.2 uM after 48 hrs by Western blot analysis. Format: cell-based. In general terms: In western blotting, separated proteins are transferred to a membrane and probed.

Data set [7] shares this target. The experiment in a line: Inhibition of MDM2-p53 interaction in human HCT116 cells assessed as p53 activation by measuring increase in GADD45 level at 4.2 uM after 48 hrs by Western blot analysis. Format: cell-based.
For data set [8] the target is unchanged. The experiment in a line: Inhibition of MDM2-p53 interaction in human HCT116 cells assessed as p53 activation by measuring decrease in Bcl-2 level at 4.2 uM after 48 hrs by Western blot analysis. Format: cell-based.
The subject of data set [9] is HCT-116. The experiment in a line: Induction of mitochondrial ROS generation in human HCT116 cells at 4.2 uM after 48 hrs by MitoSOX dye-based flow cytometric analysis. Format: functional, cell-based. (In general: In flow cytometry, cells or beads pass a laser one at a time.)
Data set [10] relates to HCT-116. The experiment in a line: Induction of apoptosis in human HCT116 cells at 4.2 uM after 48 hrs by annexin V/FITC-propidium iodide staining-based flow cytometric method. Format: functional, cell-based.
Data set [11] deals with T1, Tumour suppressor p53/oncoprotein Mdm2 (Homo sapiens). The experiment in a line: Inhibition of MDM2-p53 interaction in human HCT116 cells assessed as p53 activation by measuring increase in PUMA level at 4.2 uM after 48 hrs by Western blot analysis. It counts as cell-based.
Data set [12] is described as follows: Selectivity ratio of IC50 for human HFF to IC50 for human A375 cells. The conditions noted are these: HFF cells versus A375 cells, read-out: Ratio IC50. Format: toxicity.
The test system of data set [13] is MCF7. The experiment in a line: Antiproliferative activity against human MCF7 cells after 48 hrs by SRB assay. Format: functional, cell-based. Particulars: MCF7, 48 h.
For data set [14], the target named is T1, Tumour suppressor p53/oncoprotein Mdm2 (Homo sapiens). Put plainly: Inhibition of MDM2-p53 interaction in human HCT116 cells assessed as p53 activation by measuring increase in cleaved-PARP level at 4.2 uM after 48 hrs by Western blot analysis. It counts as cell-based.
Data set [15] in a line: Selectivity ratio of IC50 for human HFF to IC50 for human MCF7 cells. Format: toxicity. Particulars: HFF cells versus MCF7 cells, read-out: Ratio IC50.
A short description of data set [16]: Selectivity ratio of IC50 for human HFF to IC50 for human HepG2 cells. It counts as toxicity. The conditions noted are these: HFF cells versus HepG2 cells, read-out: Ratio IC50.
Data set [17] concerns A-375. Put plainly: Antiproliferative activity against human A375 cells after 48 hrs by SRB assay. Format: functional, cell-based. Particulars: A-375, 48 h. For orientation: In SRB staining, fixed cells bind dye roughly in proportion to their protein.
Data set [18] has as its system HCT-116. The experiment in a line: Cell cycle arrest in human HCT116 cells assessed as accumulation at G2/M phase at 4.2 uM after 48 hrs by propidium iodide staining-based flow cytometric analysis. It counts as functional.
Data set [19] has as its system HepG2. Put plainly: Antiproliferative activity against human HepG2 cells after 48 hrs by SRB assay. Format: functional, cell-based. The conditions noted are these: HepG2, 48 h.
Data set [20] has as its target T1, Tumour suppressor p53/oncoprotein Mdm2 (Homo sapiens). Put plainly: Inhibition of MDM2-p53 interaction in human HCT116 cells assessed as p53 activation by measuring increase in p21 level at 4.2 uM after 48 hrs by Western blot analysis. It counts as cell-based.
Data set [21] is described as follows: Selectivity ratio of IC50 for human HFF to IC50 for human HCT116 cells. It counts as toxicity. The conditions noted are these: HFF cells versus HCT116 cells, read-out: Ratio IC50.
Data set [22] concerns HCT-116. Put plainly: Anticlonogenic activity against human HCT116 cells after 11 days by crystal violet staining based assay. It counts as functional, cell-based. The conditions noted are these: HCT-116, 264 h.
Data set [23] has as its system Saccharomyces cerevisiae. The experiment in a line: Growth inhibition of Saccharomyces cerevisiae expressing empty vector at 10 uM after 42 hrs by Yeast-based assay. Format: organism-based. The conditions noted are these: in vivo.
The test system of data set [24] is Saccharomyces cerevisiae. The experiment in a line: Growth inhibition of Saccharomyces cerevisiae expressing MDM2 at 10 uM after 42 hrs by Yeast-based assay. It counts as organism-based. Particulars: in vivo.
Data set [25] has as its system Saccharomyces cerevisiae. Put plainly: Growth inhibition of Saccharomyces cerevisiae expressing p53 at 10 uM after 42 hrs by Yeast-based assay. Particulars: in vivo. It counts as organism-based.

From ChEMBL document CHEMBL4152340, “Targeting the MDM2-p53 protein-protein interaction with prenylchalcones: Synthesis of a small library and evaluation of potential antitumor activity” (Eur J Med Chem, 2018) come the findings set out here.

Calls of active or inactive are those of the source. The rule behind the calls is not given here.

T1 sequence (P04637 whole entry, looked up): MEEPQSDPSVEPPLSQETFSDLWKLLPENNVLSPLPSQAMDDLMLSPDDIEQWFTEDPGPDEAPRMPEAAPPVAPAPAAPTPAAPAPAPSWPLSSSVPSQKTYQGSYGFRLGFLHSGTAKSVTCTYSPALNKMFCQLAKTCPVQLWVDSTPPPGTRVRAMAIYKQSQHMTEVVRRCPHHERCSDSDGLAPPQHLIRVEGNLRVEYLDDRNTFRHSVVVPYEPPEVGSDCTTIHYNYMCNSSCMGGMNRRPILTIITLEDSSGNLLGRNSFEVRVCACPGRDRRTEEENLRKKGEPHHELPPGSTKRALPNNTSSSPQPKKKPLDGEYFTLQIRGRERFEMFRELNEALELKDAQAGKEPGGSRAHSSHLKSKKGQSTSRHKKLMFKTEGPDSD
T1 sequence (Q00987 whole entry, looked up): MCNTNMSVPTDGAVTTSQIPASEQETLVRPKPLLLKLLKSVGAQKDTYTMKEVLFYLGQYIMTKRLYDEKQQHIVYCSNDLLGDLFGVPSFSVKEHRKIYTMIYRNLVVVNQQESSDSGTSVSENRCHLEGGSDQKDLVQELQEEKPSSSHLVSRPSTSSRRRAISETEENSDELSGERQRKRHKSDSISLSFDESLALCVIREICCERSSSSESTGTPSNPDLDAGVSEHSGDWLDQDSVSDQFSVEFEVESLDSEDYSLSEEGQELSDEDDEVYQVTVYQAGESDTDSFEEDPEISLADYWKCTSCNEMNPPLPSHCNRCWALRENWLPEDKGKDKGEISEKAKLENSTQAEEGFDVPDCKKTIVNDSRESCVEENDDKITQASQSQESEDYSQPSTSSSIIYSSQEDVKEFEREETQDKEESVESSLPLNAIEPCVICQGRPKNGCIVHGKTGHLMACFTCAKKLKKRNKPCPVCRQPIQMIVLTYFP

A word on the IC50: it is the point on the concentration scale where inhibition reaches its midpoint. A higher IC50 goes with weaker potency. As for `COc1cccc(/C=C/C(=O)c2c(O)c(CC=C(C)C)c(OC)c(CC=C(C)C)c2OC)c1OC`, the IC50 in data set [1] was found to be 15.3 µM. In other words, the double-digit micromolar range.
`COc1cc(OC)c(C(=O)/C=C/c2cc(Cl)cc(Cl)c2)c(OCC=C(C)C)c1` registered a concentration for half-maximal inhibition (IC50) in [1] of 24.5 µM.
Same read-out and setting: under `COc1cc(OC)c(C(=O)/C=C/c2cc(OC)c(OC)c(OC)c2)c(OCC=C(C)C)c1CC=C(C)C` stands 2.9 µM; under `COc1cccc(/C=C/C(=O)c2c(O)cc(OC)cc2OC)c1`, 3.1 µM.
Still for that read-out and setting: next, `COc1cccc(/C=C/C(=O)c2c(OC)cc(OC)cc2OCC=C(C)C)c1`: 7.7 µM.
Turning to `COc1cc(O)c(C(=O)/C=C/c2cccc(OC)c2OC)c(OC)c1CC=C(C)C`, the inhibition entry in [2] is “Active”. Further, the “growth inhibition (GI)” value in data set [3], in data set [4] and in [5] was “Non-Toxic” throughout. In addition, 29.5 µM corresponded to half-maximal inhibition in data set [1] (IC50).
In data set [1], `COc1ccc(/C=C/C(=O)c2c(OC)cc(OC)cc2OCC=C(C)C)cc1` came in with an IC50 of 7.6 µM. This lies in the single-digit micromolar range.
Still for that read-out and setting: under `COc1cc(O)c(C(=O)/C=C/c2cccc(Cl)c2Cl)c(OC)c1` stands 2.7 µM.
The same measure, in the same setting: under `COc1cc(OC)c(C(=O)/C=C/c2ccc(F)cc2)c(OCC=C(C)C)c1` stands 3.2 µM; under `COc1cc(OC)c(C(=O)/C=C/c2ccc(OC)c(OC)c2)c(OCC=C(C)C)c1`, 5.7 µM.
Turning to `COc1ccc(/C=C/C(=O)c2c(O)cc(OC)cc2OC)cc1` [FLAVOKAWAIN A], the inhibition result in [2] is “Active”. Also, the “growth inhibition (GI)” value in data set [3], in data set [4] and in data set [5] was “Non-Toxic” throughout. In addition, half-maximal inhibition in data set [1] (IC50) was put at 10.6 µM.
Consider `COc1cc(O)c(C(=O)/C=C/c2cccc(OC)c2OC)c(OC)c1`, for which the 50% inhibitory concentration (IC50) in data set [1] turned out to be 3.5 µM.
For `COc1cc(OC)c(C(=O)/C=C/c2ccc(Br)cc2)c(OCC=C(C)C)c1`, the inhibition entry in data set [6], in data set [2], in data set [7], in data set [8], in [11] and in [14] was “Active” in each case. The inhibition result in data set [20] is “Active”. In addition, the outcome in data set [9], in data set [10] and in [18] was Active. Further, the selectivity ratio in [12], in data set [15], in data set [16] and in data set [21] was 3 throughout. Besides, the IC50 worked out at 2.8 µM in data set [13]; 1.6 µM in data set [17]; 2.1 µM in data set [1]; 3.6 µM in data set [19]; 0.17 µM in data set [22]. The “growth inhibition (GI)” value in [3], in data set [4] and in [5] was “Non-Toxic” in each case.
`COc1cc(O)c(C(=O)/C=C/c2cc(Cl)cc(Cl)c2)c(OC)c1` had a concentration for half-maximal inhibition (IC50) in data set [1] of 1.9 µM.
Still for that read-out and setting: under `COc1cc(O)c(C(=O)/C=C/c2ccc(OC)c(OC)c2)c(OC)c1` stands 27.6 µM.
For the molecule `COc1ccc(C2=N[C@@H](c3ccc(Cl)cc3)[C@@H](c3ccc(Cl)cc3)N2C(=O)N2CCNC(=O)C2)c(OC(C)C)c1` [NUTLIN-3], the “growth inhibition (GI)” value in data set [23], in [24] and in [25] was “Non-Toxic” in each case.
Turning to `COc1cc(OCC=C(C)C)c(C(=O)/C=C/c2cc(OC)c(OC)c(OC)c2)c(OC)c1CC=C(C)C`, the IC50 in data set [1] was found to be 4.2 µM.
Same read-out and setting: next, `COc1cc(/C=C/C(=O)c2c(OC)cc(OC)cc2OCC=C(C)C)cc(OC)c1`: 3.5 µM; `COc1cc(OC)c(C(=O)/C=C/c2cccc(Cl)c2Cl)c(OCC=C(C)C)c1`: 1.9 µM.
For the molecule `COc1ccc(/C=C/C(=O)c2c(O)cc(OC)cc2OC)c(OC)c1`, in [2], the inhibition entry was “Active”. Further, the “growth inhibition (GI)” value in data set [3], in data set [4] and in [5] was “Non-Toxic” in each case. Half-maximal inhibition in data set [1] (IC50) was put at 50 µM.
Take `COc1cc(O)c(C(=O)/C=C/c2ccc(Br)cc2)c(OC)c1`: the concentration for half-maximal inhibition (IC50) in [1] is 14 µM.
In the case of `COc1cc(OC)c(C(=O)/C=C/c2cccc(OC)c2OC)c(OCC=C(C)C)c1`, the inhibition entry in data set [2] was “Active”. For the same molecule, the “growth inhibition (GI)” value in data set [3], in data set [4] and in data set [5] was “Non-Toxic” each time. Moreover, inhibition in data set [1] was half-maximal at 11.7 µM (IC50).
Take `COc1ccc(/C=C/C(=O)c2c(OCC=C(C)C)cc(OC)c(CC=C(C)C)c2OC)cc1OC`: the IC50 in [1] is 7.4 µM.
As to `COc1cc(O)c(C(=O)/C=C/c2ccc(F)cc2)c(OC)c1`, the IC50 in data set [1] amounted to 4.4 µM.
